From patent publication US20040110676A1, “Methods for modulating cell survival” (priority 2000, published 2004)

What was measured:
[1] = system: immunoprecipitated recombinant protein containing the N-terminal one-third of htt
[2] = system: recombinant N-terminal one-third of htt with serine 421 mutated to alanine (S421A)
[3] = system: spermatogenic cells; assay: Testicular histology, ultrastructure and TUNEL labeling; type: in vivo; details: endogenous htt expression increased to 100% of normal levels
Description: Testes were removed from anesthetized animals and immediately placed in fixative (1.5% paraformaldehyde, 1.5% glutaraldehyde, 0.1 M Na cacodylate, pH 7.3). The capsules were nicked with a scalpel and then the organs left to fix for approximately 1 hour. The testes were cut into small pieces and fixed for an additional hour. The pieces were washed with buffer, post-fixed in buffered 1% OSO4 on ice for 1 hour, washed with dH2O, and stained en bloc in 1% aqueous uranyl acetate. The samples were washed with dH2O, dehydrated through a graded concentration series of ethyl alcohols, and then embedded in JEMBED™812 (J. B. EM Services Inc., Point-Claire, Quebec).
For histological analysis, thick sections (1 μm) were stained with toluidine blue and evaluated on a Zeiss Axiophot microscope. For ultrastructural analysis, thin sections were cut on an ultramicrotome, stained with lead citrate and uranyl acetate, and then viewed and photographed on a Philips 300 electron microscope operated at 60 kV.
TUNEL™ labeling (Boehringer Mannheim) was performed using standard techniques on frozen sections of testes that were lightly immersion fixed in 3% paraformaldehyde. […]
The cellular effect of the htt expression was determined by analyzing the testicular morphology of YAC rescued htt knockout mice. […]
TUNEL™ staining was used to quantitate apoptosis in the YAC rescued transgenic mice. […]

[4] = molecular target: AKT (Homo sapiens, UniProt P31749); assay: In vitro kinase reaction, phosphorylation of htt by AKT (autoradiography); type: biochemical; details: S421A-mutant N-terminal one-third of htt as substrate, compared with wild-type, purified recombinant active AKT
Sequence of AKT (P31749 whole entry): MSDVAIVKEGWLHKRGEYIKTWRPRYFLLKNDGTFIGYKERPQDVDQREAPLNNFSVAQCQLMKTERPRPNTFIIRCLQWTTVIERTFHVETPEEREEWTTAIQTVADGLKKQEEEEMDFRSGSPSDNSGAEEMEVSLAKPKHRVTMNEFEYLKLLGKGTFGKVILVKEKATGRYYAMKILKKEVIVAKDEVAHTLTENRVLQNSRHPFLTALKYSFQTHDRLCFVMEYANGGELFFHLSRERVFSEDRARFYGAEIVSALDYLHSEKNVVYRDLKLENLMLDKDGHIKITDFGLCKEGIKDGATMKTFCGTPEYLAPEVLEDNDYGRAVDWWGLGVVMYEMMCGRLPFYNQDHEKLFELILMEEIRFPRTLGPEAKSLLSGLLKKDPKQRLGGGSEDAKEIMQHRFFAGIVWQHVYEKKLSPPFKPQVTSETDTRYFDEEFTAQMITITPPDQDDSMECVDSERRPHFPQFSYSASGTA
Description: Serine 421 of huntingtin can be phosphorylated by purified recombinant active AKT in vitro (FIG. 18). Immunoprecipitated recombinant protein containing the N-terminal one-third of htt was used as a substrate for AKT. Phosphorylation was detected by autoradiography since radiolabelled ATP was a component of the in vitro kinase reaction. When serine 421 was mutated to alanine (S421A), a non-phosphorylatable amino acid, 64% of the phosphorylation signal on huntingtin was ablated. […] Other sites for AKT phosphorylation are threonines 1024 and 2068.

[5] = system: HBL-100 cells; assay: Anoikis assay on poly-HEMA coated plates, annexin-V-FITC/PI; type: cell-based, human
Description: The human breast cell line HBL-100, transformed by the SV40 virus large T antigen with epithelial like morphology, was used to investigate the importance of the huntingtin serine residue at position 421 with respect to phosphorylation towards anoikis resistant, anchorage independent cell growth. HBL-100 cells were transfected with a 3949-15wt huntingtin vector construct, or a similar vector in which the normal serine at position 421 was mutated to an alanine residue. This mutation prevents phosphorylation from occurring at that site, which is presumed to be mediated by the kinase AKT/PKB. Cells were cultured in DMEM with 5% serum for 24 hours either on untreated tissue culture plastic or on poly-HEMA-coated plastic plates. Cells were harvested, counted and viability was assessed via annexin-V-FITC and propidium iodide (PI) staining.
HBL-100 cells were transiently transfected with a FLAG-tagged 3949-15wt htt, or a FLAG-tagged (S-A) unphosphorylatable mutant htt. Wild-type cells were also treated with LY294002, a specific PI-3 kinase inhibitor, at a concentration of 10 μM, to determine whether inhibition of kinase function could abrogate the induction of anoikis. Western blot analysis confirming the expression of both full length and 3949 huntingtin in the FLAG-tagged constructs (FIG. 26B). The presence of endogenous huntingtin in the parental cells is also shown. […]

[6] = system: HEK 293T cells; assay: MTT (WST-1) cell viability assay, tamoxifen-induced cell death; type: cell-based, human; details: transfected HEK 293T cells, tamoxifen 4 hours, compared with LacZ control
Description: The survival effect of htt was measured in vitro using the MTT assay, in which a reduction in mitochondrial viability is indicative of cell death. Human embryonic kidney (HEK) 293T cells were seeded at a density of 5×10^4 cells into 96-well plates and transfected with 0.1 μg htt or LacZ DNA using a standard calcium phosphate protocol (Hackam et al. (1998) J Cell Biol. 141: 1097-105). Transfected cells in 96-well plates were treated at 48 hours post-transfection with a various concentrations of tamoxifen, a cell permeable compound that leads to caspase activation and cell death, for 4 hours. Cell viability was measured, […], by incubating the cells for 2 hours in a 1:10 dilution of WST-1 reagent (Boehringer Mannheim) and release of formazan from mitochondria was quantified by the MTT assay at 450 nm using an ELISA plate reader (Dynatech Laboratories). Mock transfected, vector only and LacZ transfected cells served as controls for transfection-related toxicity. Statistical analyses of the cell death data were performed using one-way ANOVA and Newman-Keuls post-comparison tests.

[7] = system: NT2 cells; assay: Mutant htt (HD138)-induced cell death, apoptotic morphology scoring; type: cell-based, human; details: NT2 cells co-transfected with HD138, tamoxifen stimulus, vs pyruvate kinase control, p=0.002
Description: Mutant htt protein (HD138) was co-transfected with control protein, pyruvate kinase (PK), or with htt C-terminus (C-ter) into NT2 cells (a human neuronal precursor cell line) at 40% density using lipofectamine (GibcoBRL), and cell death in response to tamoxifen stimulus was measured. Cell death was quantified in NT2 cells by co-transfection of the expression constructs with a plasmid containing the LacZ gene at a 4:1 ratio, and the cells were stained for β-galactosidase activity at 24 hours post-transfection using standard procedures. The survival effect of the htt protein was assessed by incubating transfected cells with the pro-apoptotic drug tamoxifen for 4 hrs at various concentrations. An apoptotic morphology was scored as blue-staining cells that were rounded up, blebbed and condensed, which were clearly distinguished from viable cells that were flat and had neurite-like extensions. The cell death data was analyzed for statistical significance using one-way ANOVA and Newman-Keuls post-comparison tests.

[8] = system: NT2 cells; assay: HIP-1-induced cell death, morphology scoring; type: cell-based, human; details: NT2 cells co-transfected with HIP-1, vs control protein PK, p<0.01
Description: HIP-1-induced toxicity was used to assess whether the C-terminus of htt confers protection against a toxic protein-mediated cell death, in addition to its effect on tamoxifen-induced death. NT2 cells were co-transfected with mutant HIP-1 and the C-terminus, or HIP-1 and the control pyruvate kinase cDNA, using lipofectamine (GibcoBRL). Cell death was measured by morphological changes using co-transfection of a plasmid containing the LacZ gene, as described herein. […] Thus, the protective activity of htt C-terminus may have a functional role in HIP-1-mediated cell death in vivo.

[9] = system: truncated mutant htt with 128 CAG repeats in HEK 293T cells; assay: Mutant htt aggregate formation, immunofluorescence; type: cell-based, human; details: vs LacZ control
Description: The C-terminus of htt was co-transfected with mutant htt and aggregate formation was induced with tamoxifen or HIP-1 expression as described herein. HEK 293T cells were transfected with truncated mutant htt with 128 CAG repeats and processed for immunofluorescence by growing cells on glass coverslips and transfecting at 30% confluency using a standard calcium phosphate protocol. At 48 hours post-transfection, the cells were treated with 35 μM tamoxifen (Sigma) for 1 hour to induce aggregate formation, then processed for immunofluorescence. The cells were fixed in 4% paraformaldehyde/PBS, permeabilised in 0.5% Triton X-100/PBS for 5 min, then incubated with anti-htt antibody MAB2166 (Chemicon) (1:2500 dilution) diluted in 0.4% BSA/PBS. Secondary antibodies conjugated to FITC (Jackson Laboratories) were used at 1:600-1:800 dilutions, and DAPI (4′,6′-diamindino-2-phenylindole, Sigma) was used as a nuclear counter-stain. Appropriate control experiments were performed to determine the specificity of the antibodies, including secondary antibody only and mock transfected cells. The cells were viewed with a Zeiss (Axioscope) microscope, digitally captured with a CCD camera (Princeton Instrument Inc.) and the images were colourised and overlapped using the Eclipse (Empix Imaging Inc.) software program. […]

Sequence of immunoprecipitated recombinant protein containing the N-terminal one-third of htt (chain, as listed by the source): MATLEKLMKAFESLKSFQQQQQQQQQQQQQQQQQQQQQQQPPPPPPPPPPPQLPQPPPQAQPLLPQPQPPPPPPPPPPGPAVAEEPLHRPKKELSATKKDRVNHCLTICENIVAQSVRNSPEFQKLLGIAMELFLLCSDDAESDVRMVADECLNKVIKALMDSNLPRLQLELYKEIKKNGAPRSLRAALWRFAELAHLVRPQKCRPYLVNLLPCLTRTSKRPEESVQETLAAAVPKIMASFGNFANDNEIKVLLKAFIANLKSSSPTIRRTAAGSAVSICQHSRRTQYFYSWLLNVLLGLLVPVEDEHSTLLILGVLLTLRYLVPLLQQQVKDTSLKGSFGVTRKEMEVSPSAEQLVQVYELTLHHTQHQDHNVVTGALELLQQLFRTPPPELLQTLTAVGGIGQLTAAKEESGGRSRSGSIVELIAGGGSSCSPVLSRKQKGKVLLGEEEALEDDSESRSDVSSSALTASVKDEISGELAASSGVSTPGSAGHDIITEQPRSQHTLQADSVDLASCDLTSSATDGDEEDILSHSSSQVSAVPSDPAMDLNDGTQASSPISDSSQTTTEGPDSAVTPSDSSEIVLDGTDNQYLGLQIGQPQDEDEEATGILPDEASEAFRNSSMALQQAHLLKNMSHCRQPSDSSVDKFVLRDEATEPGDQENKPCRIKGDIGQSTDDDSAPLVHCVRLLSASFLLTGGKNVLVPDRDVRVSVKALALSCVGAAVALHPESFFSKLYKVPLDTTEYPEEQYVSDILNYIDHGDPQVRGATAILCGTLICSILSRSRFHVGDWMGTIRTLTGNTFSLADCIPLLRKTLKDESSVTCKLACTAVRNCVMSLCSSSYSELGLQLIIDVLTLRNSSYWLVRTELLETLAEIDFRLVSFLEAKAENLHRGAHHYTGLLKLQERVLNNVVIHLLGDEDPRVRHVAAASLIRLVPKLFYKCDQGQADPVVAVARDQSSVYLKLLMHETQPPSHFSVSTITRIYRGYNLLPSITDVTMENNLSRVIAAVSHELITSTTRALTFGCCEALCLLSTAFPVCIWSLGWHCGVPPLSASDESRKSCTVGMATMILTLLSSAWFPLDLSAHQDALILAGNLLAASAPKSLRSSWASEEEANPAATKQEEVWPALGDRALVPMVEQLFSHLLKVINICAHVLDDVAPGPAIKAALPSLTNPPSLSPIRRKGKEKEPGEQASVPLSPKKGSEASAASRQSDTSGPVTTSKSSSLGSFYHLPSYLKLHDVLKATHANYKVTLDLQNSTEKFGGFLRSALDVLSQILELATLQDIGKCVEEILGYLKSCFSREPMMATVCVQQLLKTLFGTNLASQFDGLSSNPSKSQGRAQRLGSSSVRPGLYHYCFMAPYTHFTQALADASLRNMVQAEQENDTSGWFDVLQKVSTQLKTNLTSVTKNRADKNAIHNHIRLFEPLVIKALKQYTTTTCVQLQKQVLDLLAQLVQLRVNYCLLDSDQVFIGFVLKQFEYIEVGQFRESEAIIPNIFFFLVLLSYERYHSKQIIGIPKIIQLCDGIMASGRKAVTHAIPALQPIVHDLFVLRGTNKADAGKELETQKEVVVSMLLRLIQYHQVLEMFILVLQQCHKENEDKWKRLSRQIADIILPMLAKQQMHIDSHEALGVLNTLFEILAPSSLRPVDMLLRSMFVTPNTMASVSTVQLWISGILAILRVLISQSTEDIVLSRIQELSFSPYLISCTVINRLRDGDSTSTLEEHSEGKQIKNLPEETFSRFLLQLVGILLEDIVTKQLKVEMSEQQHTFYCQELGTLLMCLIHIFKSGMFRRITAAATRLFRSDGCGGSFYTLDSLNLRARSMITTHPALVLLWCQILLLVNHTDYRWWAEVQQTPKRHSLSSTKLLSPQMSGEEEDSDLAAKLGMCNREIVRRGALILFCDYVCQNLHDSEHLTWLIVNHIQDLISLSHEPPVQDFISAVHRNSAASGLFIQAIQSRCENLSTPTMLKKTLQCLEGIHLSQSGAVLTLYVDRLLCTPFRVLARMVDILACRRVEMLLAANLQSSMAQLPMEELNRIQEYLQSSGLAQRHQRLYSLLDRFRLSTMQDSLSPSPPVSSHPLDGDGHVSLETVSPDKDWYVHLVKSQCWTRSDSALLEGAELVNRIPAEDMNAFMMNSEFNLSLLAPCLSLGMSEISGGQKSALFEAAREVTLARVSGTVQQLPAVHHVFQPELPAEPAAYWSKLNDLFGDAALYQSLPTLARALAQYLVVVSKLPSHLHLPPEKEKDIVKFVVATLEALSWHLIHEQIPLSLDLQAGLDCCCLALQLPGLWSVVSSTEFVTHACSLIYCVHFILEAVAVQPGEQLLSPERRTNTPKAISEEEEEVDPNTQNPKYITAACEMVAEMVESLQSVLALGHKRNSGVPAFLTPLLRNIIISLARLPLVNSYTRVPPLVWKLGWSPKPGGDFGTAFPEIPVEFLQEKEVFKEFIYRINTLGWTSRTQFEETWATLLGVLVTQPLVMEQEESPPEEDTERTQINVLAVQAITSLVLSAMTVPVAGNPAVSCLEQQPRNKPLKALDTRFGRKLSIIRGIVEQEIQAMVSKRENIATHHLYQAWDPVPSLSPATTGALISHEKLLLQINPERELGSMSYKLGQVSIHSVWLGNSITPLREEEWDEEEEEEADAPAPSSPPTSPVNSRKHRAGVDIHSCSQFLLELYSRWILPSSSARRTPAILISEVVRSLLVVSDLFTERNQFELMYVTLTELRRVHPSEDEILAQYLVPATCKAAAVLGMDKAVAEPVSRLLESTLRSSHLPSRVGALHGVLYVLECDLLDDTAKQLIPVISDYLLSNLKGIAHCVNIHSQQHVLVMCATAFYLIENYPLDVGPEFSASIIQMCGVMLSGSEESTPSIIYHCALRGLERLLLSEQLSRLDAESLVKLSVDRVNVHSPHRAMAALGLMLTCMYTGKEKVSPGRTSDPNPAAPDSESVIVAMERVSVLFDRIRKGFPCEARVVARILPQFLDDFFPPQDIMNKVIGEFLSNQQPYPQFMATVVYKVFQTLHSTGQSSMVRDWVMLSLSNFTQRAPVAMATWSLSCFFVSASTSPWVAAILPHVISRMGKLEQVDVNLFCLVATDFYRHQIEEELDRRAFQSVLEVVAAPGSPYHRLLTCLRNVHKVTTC
Sequence of recombinant N-terminal one-third of htt with serine 421 mutated to alanine (S421A) (chain, as listed by the source S421A): as the sequence (chain, as listed by the source) above, with S421A counted along it

purified recombinant active AKT
phosphorylation detected by autoradiography (in vitro kinase reaction with radiolabelled ATP) [1]: Serine 421 of huntingtin can be phosphorylated by purified recombinant active AKT in vitro
phosphorylation signal ablated (autoradiography, in vitro kinase reaction) [2]: 64% of the phosphorylation signal on huntingtin was ablated

endogenous htt: murine wild-type htt expressed from the Hdh gene
effect on degenerative testicular phenotype of YAC72 mice [3]: completely rescued the degenerative testicular phenotype

S421A: htt with serine 421 replaced by alanine, unphosphorylatable
phosphorylation signal on huntingtin ablated [4]: 64%
anoikis resistant growth in detached state (kinase inhibition study) ([5]; HBL-100 cells transiently transfected with FLAG-tagged constructs, LY294002 10 μM): grew poorly in a detached state
anoikis resistance, growth attached or detached ([5]; transfected HBL-100 cells, 24 hours, poly-HEMA): behaved similarly to untransfected cells

htt C-terminus: C-terminal fragment of huntingtin, e.g. amino acids 585-3144 of SEQ ID NO: 1, expressed by transfection
tamoxifen-induced cell death (mitochondrial viability) [6]: protects HEK 293T cells from tamoxifen-induced cell death
HD138-dependent cell death [7]: reduced HD138-dependent cell death
HIP-1 mediated cell death [8]: reduced HIP-1 mediated cell death
number of aggregates formed by truncated mutant htt (1955-128) ([9]; aggregates induced by HIP-1 expression): reduces the number of aggregates
number of aggregates formed by truncated mutant htt (1955-128) ([9]; aggregates induced by tamoxifen stimulus (35 μM, 1 hour)): reduces the number of aggregates
